# Entries after “also recorded” stand apart in the source; their conditions may differ.
# Columns and labels:
# [1] = mouse tissues; FIGS. 1-5 of US 2013/0064768 A1; cited from earlier work
# [2] = Arterial and venous blood sampling of 18F-TPP+, whole blood to plasma concentration ratio; assay type: in vivo, domestic swine
# Description: (§1) Pigs were fasted 12 hours prior to induction of anesthesia, sedated with 4.4 mg/kg Telazol, placed on 5% masked isoflurane, intubated, maintained with 1.5% isoflurane and mechanically ventilated. Vital signs were monitored continuously. Vascular access was obtained via the femoral veins for injection of PET radiotracer and iodinated contrast media. An arterio-venous shunt was placed in the left femoral artery for blood withdrawal.
# Arterial blood sampling of ^18F-TPP^+ were drawn every 10 seconds for the first 3 minutes, then at 1 minute intervals for 5 minutes, and at increasing intervals until 120 minutes post injection. In two studies, venous several blood samples were also drawn at 5, 10, 15, 30, 60 and 90 minutes for comparison with arterial samples. All blood samples were centrifuged to determine plasma and red cell concentration histories. Concentration ratios of whole blood to plasma were computed.
# [3] = Dynamic PET/CT with Logan plot, parametric map of 18F-TPP+ volume of distribution Vd; assay type: in vivo, domestic swine; details: pig with experimental tissue injury in LAD territory, FIG. 8
# Description: The study cohort consisted of n=9 domestic swine which were divided into two groups, control (n=6) and tissue injury (scar) (n=3). […] Pigs were housed and maintained under the supervision of the Massachusetts General Hospital Animal Care and Use Committee. Studies were conducted serially, one pig at a time, from August 2014 till October 2015. The weight of the pigs at scan averaged 53.1 kg with a range from 30-92 kg.
# as §1, with “An arterio-venous shunt was placed in the left femoral artery for blood withdrawal.” left out
# PET Scans were performed on a Siemens Biograph PET/CT scanner: A planar x-ray topogram was performed to define the field of view (FOY) with the heart centered for computed tomography (CT), CT-angiogram (CTA) and PET acquisitions. […] Each frame was reconstructed using a filtered back projection algorithm to yield a radioactivity concentration map in units of Bq/cc with 83 slices and a voxel size of 2.14×2.14×3 mm^3.
# Dynamic PET data were analyzed using a Logan plot (Logan, Fowler et al. 1990) to produce parametric images of the ^18F-TPP^+ volume of distribution, Vd and reoriented into the short axis projection. […]
# [4] = Time course of tracer concentration to steady state (FIG. 4, FIG. 11); assay type: in vivo, domestic swine
# Excerpt: Applicants use a few administration methods including a constant infusion, a pulse or bolus injection or a combination of a constant infusion a pulse or bolus injection. To date, most of Applicants work has used the kinetic approach because it carries the complete information available from our measurements. By analyzing the kinetic data (concentration vs time), Applicants can infer the steady state based on the ratio of the tissue concentration to the plasma concentration. […] The addition of the pulse or bolus injection to the constant infusion can shorten the time needed to impose the steady state for TPP^+. In this case both the plasma and myocardial concentrations become constant after about 90 minutes. The two color pictures are from studies in the same pig but measured on different days, one using constant infusion and the other the kinetic protocol. Note the excellent agreement between the two methods.
# [5] = Comparison of myocardial kinetics of TPP+ and Flurpiridaz (FIG. 4); assay type: in vivo
# Excerpt: FIG. 4 is a graphical illustration depicting comparison of myocardial kinetics of TPP^| and Flurpiridaz. The black line (the top line) depicts Flurpiridaz kinetics; whereas, the red line (the bottom line) depicts TPP^+ kinetics. Concentrations are normalized to remove the effect of injected radioactivity dose.
# To provide a direct observation Applicants compared the kinetics of ^18F-TPP^+ to those of ^18F-Flurppiridaz, a tracer with high first pass capillary extraction (E>0.9). […] Thus it is unlikely that TPP^+ can provide useful myocardial flow measurements, per se.
# [6] = in vivo; cited from earlier work
smiles,measurement,setting,value
"C[P+](c1ccccc1)(c1ccccc1)c1ccccc1 [TPMP, triphenylmethylphosphonium^+]",reaching a steady state within an hour,[1],"none of MitoQ, DecylTPP, FluroUndecylTPP and TPMP reach a steady state"
"[18F]c1ccc([P+](c2ccccc2)(c2ccccc2)c2ccccc2)cc1 [^18F-TPP^+, ^18F-tetraphenylphosphonium]",concentration ratio for whole blood versus plasma,[2]; constant value after injection,0.95
same,time after injection at which whole blood versus plasma ratio became constant,[2]; in vivo,about 10 minutes
same,time the whole blood versus plasma ratio remained constant (duration of measurement),[2]; in vivo,120 min
same,agreement of venous and arterial samples,[2]; samples obtained at least 10 minutes after injection,good agreement
same,volume of distribution Vd,[3]; areas in other vascular territories,25 mL/cc
same,volume of distribution Vd,[3]; core of the injury,2 mL/cc
same,time remaining in the steady state,[4]; in a subject,at least 2 hours
same,time to reach a steady state in subject / tissue,"[4]; in vivo tissue, FIG. 4 and FIG. 11",within minutes; also recorded: within two hours
same,time after which plasma and myocardial concentrations become constant,"[4]; intravenous pulse of TPP+ followed by constant infusion, FIG. 11",about 90 minutes
same,accumulation in the myocardium,[5],accumulates slowly in the myocardium
same,extraction compared with 18F-Flurppiridaz,[5]; myocardium,much lower
same,kinetics compared with 18F-Flurppiridaz,[5]; myocardium,much slower kinetics
CCCCCCCCCC[P+](c1ccccc1)(c1ccccc1)c1ccccc1 [DecylTPP],reaching a steady state within an hour,[1],"none of MitoQ, DecylTPP, FluroUndecylTPP and TPMP reach a steady state"
COC1=C(OC)C(=O)C(CCCCCCCCCC[P+](c2ccccc2)(c2ccccc2)c2ccccc2)=C(C)C1=O [MitoQ],reaching a steady state within an hour,[1],"none of MitoQ, DecylTPP, FluroUndecylTPP and TPMP reach a steady state"
CC(C)(C)n1ncc(OCc2ccc(COCCF)cc2)c(Cl)c1=O [^18F-Flurppiridaz],first pass capillary extraction E,[6],> 0.9

# Source: US11109819B2, “System and method for quantitatively mapping mitochondrial membrane potential” (The General Hospital Corporation, priority 2016, dated 2021)
